# Data as given in patent US20230053540A1, “TREATMENT OF LIVER INJURY” (Massachusetts Institute of Technology, priority 2019, published 2023).
# Tested on: hepatocytes
# Test: Seq-Well scRNA-Seq of hepatocytes after APAP overdose (signature scores, DEG vs untreated)
# Format: in vivo, mouse
# Conditions: A6 vs UT
smiles,measurement,value
"CC(=O)Nc1ccc(O)cc1 [APAP, acetaminophen]",Gstz1 pct.1,0.73
same,Gtf2a2 A6logFC,0.2792
same,Gtf2a2 avg_logFC,0.2792
same,Gtf2a2 pct.1,0.379
same,Gtpbp4 avg_logFC,0.4822
same,Gtpbp4 pct.1,0.477
same,Gulo avg_logFC,−0.8017
same,H2-Ab1 avg_logFC,0.461
same,H2-Ab1 pct.1,0.158
same,H2-D1 A6logFC,0.2865
same,H2-D1 avg_logFC,0.2865
same,H2-D1 pct.1,0.766
same,H2-Eb1 avg_logFC,0.3279
same,H2-Eb1 pct.1,0.105
same,H3f3b avg_logFC,0.7029
same,H6pd avg_logFC,0.3437
same,H6pd pct.1,0.623
same,Haao avg_logFC,−0.5912
same,Hacl1 avg_logFC,−0.7069
same,Hagh avg_logFC,−0.674
same,Hba-a1 avg_logFC,0.735
same,Hba-a2 avg_logFC,0.5535
same,Hbb-bs avg_logFC,2.862
same,Hbb-bt avg_logFC,1.43
same,Hdac11 avg_logFC,−0.3368
same,Hdac11 pct.1,0.1
same,Hdlbp avg_logFC,0.3457
same,Hdlbp pct.1,0.737
same,Heatr1 avg_logFC,0.406
same,Heatr1 pct.1,0.291
same,Hebp1 avg_logFC,−0.6354
same,Hectd1 A6logFC,0.308
same,Hectd1 avg_logFC,0.308
same,Hectd1 pct.1,0.547
same,Herc1 A6logFC,0.2562
same,Herc1 avg_logFC,0.2562
same,Herc1 pct.1,0.246
same,Herc4 A6logFC,0.2675
same,Herc4 avg_logFC,0.2675
same,Herc4 pct.1,0.332
same,Herpud1 avg_logFC,−0.4976
same,Herpud1 pct.1,0.535
same,Hes6 avg_logFC,−0.5613
same,Hgd avg_logFC,−0.7586
same,Hibadh avg_logFC,−0.4994
same,Hibadh pct.1,0.542
same,Hic2 avg_logFC,0.2898
same,Hic2 pct.1,0.15
same,Hif1a avg_logFC,0.5169
same,Hilpda avg_logFC,0.7786
same,Hint1 avg_logFC,−0.6739
same,Hint2 avg_logFC,−0.4243
same,Hint2 pct.1,0.425
same,Hipk1 A6logFC,0.2916
same,Hipk1 avg_logFC,0.2916
same,Hipk1 pct.1,0.337
same,Hmgcr A6logFC,0.4167
same,Hmgcr avg_logFC,0.4167
same,Hmgcr pct.1,0.425
same,Hmox1 avg_logFC,1.348
same,Hnf4a avg_logFC,0.8791
same,Hnrnpdl avg_logFC,0.398
same,Hnrnpdl pct.1,0.406
same,Hnrnpu A6logFC,0.3394
same,Hnrnpu avg_logFC,0.3394
same,Hnrnpu pct.1,0.625
same,Hpd avg_logFC,−0.5182
same,Hpgd avg_logFC,−0.3878
same,Hpgd pct.1,0.115
same,Hpn A6logFC,−0.2686
same,Hpn avg_logFC,−0.2686
same,Hpn pct.1,0.406
same,Hpx avg_logFC,−0.3033
same,Hpx pct.1,0.988
same,Hsbp1 A6logFC,−0.2867
same,Hsd3b5 avg_logFC,−1.07
same,Hsd17b13 avg_logFC,0.6808
same,Hsp90ab1 avg_logFC,0.3227
same,Hsp90ab1 pct.1,0.916
same,Hspb8 avg_logFC,0.6339
same,Iah1 A6logFC,−0.293
same,Iah1 avg_logFC,−0.293
same,Iah1 pct.1,0.446
same,Ier5 avg_logFC,0.289
same,Ier5 pct.1,0.134
same,Ifitm3 avg_logFC,−0.4251
same,Ifitm3 pct.1,0.587
same,Igfbp2 avg_logFC,−0.299
same,Igfbp2 pct.1,0.68
same,Iigp1 avg_logFC,0.7688
same,Il1b avg_logFC,0.7429
same,Il1r1 avg_logFC,1.245
same,Il4ra avg_logFC,0.2574
same,Il4ra pct.1,0.248
same,Il6st avg_logFC,0.3168
same,Il6st pct.1,0.411
same,Il13ra1 avg_logFC,0.2785
same,Il13ra1 pct.1,0.294
same,Impad1 A6logFC,0.3227
same,Impad1 avg_logFC,0.3227
same,Impad1 pct.1,0.391
same,Insig2 avg_logFC,0.67
same,Iqgap1 avg_logFC,0.4554
same,Iqgap1 pct.1,0.162
same,Itgb2 avg_logFC,0.2723
same,Itgb2 pct.1,0.105
same,Itih2 avg_logFC,0.5011
same,Ivns1abp A6logFC,0.3566
same,Jak1 avg_logFC,0.6039
same,Jmjd1c avg_logFC,0.6366
same,Kctd3 avg_logFC,0.2608
same,Kctd3 pct.1,0.239
same,Kdelr2 A6logFC,0.3977
same,Kdelr2 avg_logFC,0.3977
same,Kdelr2 pct.1,0.484
same,Kdm5a A6logFC,0.3514
same,Kdm5a avg_logFC,0.3514
same,Kdm5a pct.1,0.308
same,Khk avg_logFC,−0.4915
same,Khk pct.1,0.702
same,Kif1b avg_logFC,0.3718
same,Kif1b pct.1,0.527
same,Kif5b avg_logFC,0.5012
same,Kif5b pct.1,0.494
same,Kif21a A6logFC,0.4042
same,Klf3 A6logFC,0.2674
same,Klf3 avg_logFC,0.2674
same,Klf3 pct.1,0.301
same,Klf6 avg_logFC,0.7324
same,Klf15 avg_logFC,−0.4518
same,Klf15 pct.1,0.208
same,Kmo avg_logFC,−0.3844
same,Kmo pct.1,0.487
same,Krt8 avg_logFC,1.196
same,Krt18 avg_logFC,1.258
same,Lactb2 avg_logFC,−0.5965
same,Laptm5 avg_logFC,0.3382
same,Laptm5 pct.1,0.124
same,Lars2 avg_logFC,1.392
same,Lcn2 avg_logFC,0.4122
same,Lcn2 pct.1,0.301
same,Ldlr A6logFC,0.282
same,Ldlr avg_logFC,0.282
same,Ldlr pct.1,0.432
same,Lgals9 A6logFC,−0.27
same,Lgals9 avg_logFC,−0.27
same,Lgals9 pct.1,0.621
same,Lgmn avg_logFC,0.4846
same,Lgmn pct.1,0.246
same,Lifr avg_logFC,−0.6262
same,Lipc A6logFC,−0.2548
same,Lipc avg_logFC,−0.2548
same,Lipc pct.1,0.401
same,Litaf avg_logFC,0.3944
same,Litaf pct.1,0.451
same,Lmo4 avg_logFC,0.3205
same,Lmo4 pct.1,0.308
same,Lonp2 avg_logFC,−0.4674
same,Lonp2 pct.1,0.561
same,Lpgat1 avg_logFC,0.5952
same,Lpin2 avg_logFC,0.6867
same,Lrg1 avg_logFC,0.4908
same,Lrrc58 avg_logFC,1.001
same,Lrrc59 avg_logFC,0.3772
same,Lrrc59 pct.1,0.422
same,Lrrfip1 avg_logFC,0.4459
same,Lrrfip1 pct.1,0.37
same,Lsmd1 A6logFC,−0.3131
same,Lyst avg_logFC,0.4093
same,Lyst pct.1,0.31
same,Lyz2 avg_logFC,0.7322
same,Maff avg_logFC,0.3553
same,Maff pct.1,0.224
same,Magi3 A6logFC,0.27
same,Magi3 avg_logFC,0.27
same,Magi3 pct.1,0.303
same,Malat1 avg_logFC,0.9206
same,Malat1 pct.1,0.871
same,Man2a1 avg_logFC,0.4971
same,Map2k3 avg_logFC,0.4347
same,Map2k3 pct.1,0.427
same,Map3k2 A6logFC,0.2518
same,Map3k2 avg_logFC,0.2518
same,Map3k2 pct.1,0.265
same,Mapk6 A6logFC,0.2568
same,Mapk6 avg_logFC,0.2568
same,Mapk6 pct.1,0.303
same,Mapkapk2 A6logFC,0.3138
same,Mapkapk2 avg_logFC,0.3138
same,Mapkapk2 pct.1,0.396
same,Mat1a avg_logFC,0.7908
same,Mat2a avg_logFC,0.4826
same,Mat2a pct.1,0.487
same,Mbl1 avg_logFC,−0.713
same,Mbnl1 avg_logFC,0.4513
same,Mbnl1 pct.1,0.492
same,Mcee A6logFC,−0.3199
same,Mcl1 avg_logFC,0.5709
same,Mcl1 pct.1,0.573
same,Mcm10 avg_logFC,−0.4874
same,Mdn1 avg_logFC,0.318
same,Mdn1 pct.1,0.251
